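Results reflect a 48-hour exposure of cells in 96-well plates to compound at five concentrations. Here, GI50 denotes the concentration required for 50% inhibition of growth.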 The source made the active and inactive calls. Rule as the data show it: active = GI50 up to about 1.1 µM and inactive = higher.
What was measured:
Assay in all cases: growth of human tumour cells (NCI), 48 h
U-251 = system: U-251
OVCAR-4 = system: OVCAR-4
NCI-H522 = system: NCI-H522
TK-10 = system: TK-10
RPMI-8226 = system: RPMI-8226
XF498 = system: XF498
KM12 = system: KM12
HT-29 = system: HT-29
SK-MEL-28 = system: SK-MEL-28
SF-295 = system: SF-295
UACC-257 = system: UACC-257
OVCAR-5 = system: OVCAR-5
DMS-114 = system: DMS-114
SF-268 = system: SF-268
SK-MEL-2 = system: SK-MEL-2
K562 = system: K562
DLD-1 = system: DLD-1
KM-20L2 = system: KM-20L2
SK-OV-3 = system: SK-OV-3
SW-620 = system: SW-620
RXF 393 = system: RXF 393
HCT-116 = system: HCT-116
UACC-62 = system: UACC-62
HOP-62 = system: HOP-62
OVCAR-8 = system: OVCAR-8
SR = system: SR
OVCAR-3 = system: OVCAR-3
SK-MEL-5 = system: SK-MEL-5
EKVX = system: EKVX
HOP-18 = system: HOP-18
LOX IMVI = system: LOX IMVI
ACHN = system: ACHN
SNB-19 = system: SNB-19
IGROV-1 = system: IGROV-1
DMS-273 = system: DMS-273
MOLT-4 = system: MOLT-4
SNB-75 = system: SNB-75
786-0 = system: 786-0
HCC 2998 = system: HCC 2998
HCT-15 = system: HCT-15
SN12C = system: SN12C
NCI-H23 = system: NCI-H23
SF-539 = system: SF-539
Malme-3M = system: Malme-3M
M14 = system: M14
NCI-H226 = system: NCI-H226
NCI-H460 = system: NCI-H460
A549 = system: A549
CCRF-CEM = system: CCRF-CEM
SNB-78 = system: SNB-78
A498 = system: A498
M19-MEL = system: M19-MEL
HL-60 = system: HL-60
UO-31 = system: UO-31
LXFL 529 = system: LXFL 529
COLO 205 = system: COLO 205
NCI/ADR-RES = system: NCI/ADR-RES
MDA-N = system: MDA-N
BT-549 = system: BT-549
MCF7 = system: MCF7
Hs-578T = system: Hs-578T
DU-145 = system: DU-145
T47D = system: T47D
PC-3 = system: PC-3
MDA-MB-231 = system: MDA-MB-231
CAKI-1 = system: CAKI-1
HOP-92 = system: HOP-92
MDA-MB-435 = system: MDA-MB-435

## CC(=O)OCCOCNC(=S)N/N=C(\C)c1cccs1
U-251
  GI50: > 100 µM (inactive)
OVCAR-4
  GI50: > 100 µM (inactive)
NCI-H522
  GI50: > 100 µM (inactive)
TK-10
  GI50: > 100 µM (inactive)
RPMI-8226
  GI50: > 100 µM (inactive)
XF498
  GI50: > 100 µM (inactive)
KM12
  GI50: > 100 µM (inactive)
HT-29
  GI50: > 100 µM (inactive)
SK-MEL-28
  GI50: > 100 µM (inactive)
SF-295
  GI50: > 100 µM (inactive)
UACC-257
  GI50: > 100 µM (inactive)
OVCAR-5
  GI50: > 100 µM (inactive)
DMS-114
  GI50: > 100 µM (inactive)
SF-268
  GI50: > 100 µM (inactive)
SK-MEL-2
  GI50: > 100 µM (inactive)
K562
  GI50: > 100 µM (inactive)
DLD-1
  GI50: > 100 µM (inactive)
KM-20L2
  GI50: > 100 µM (inactive)
SK-OV-3
  GI50: > 100 µM (inactive)
SW-620
  GI50: > 100 µM (inactive)
RXF 393
  GI50: > 100 µM (inactive)
HCT-116
  GI50: > 100 µM (inactive)
UACC-62
  GI50: > 100 µM (inactive)
HOP-62
  GI50: > 100 µM (inactive)
OVCAR-8
  GI50: > 100 µM (inactive)
SR
  GI50: > 100 µM (inactive)
OVCAR-3
  GI50: > 100 µM (inactive)
SK-MEL-5
  GI50: > 100 µM (inactive)
EKVX
  GI50: > 100 µM (inactive)
HOP-18
  GI50: > 100 µM (inactive)
LOX IMVI
  GI50: > 100 µM (inactive)
ACHN
  GI50: > 100 µM (inactive)
SNB-19
  GI50: > 100 µM (inactive)
IGROV-1
  GI50: > 100 µM (inactive)
DMS-273
  GI50: > 100 µM (inactive)
MOLT-4
  GI50: > 100 µM (inactive)
SNB-75
  GI50: > 100 µM (inactive)
786-0
  GI50: > 100 µM (inactive)
HCC 2998
  GI50: > 100 µM (inactive)
HCT-15
  GI50: > 100 µM
SN12C
  GI50: > 100 µM (inactive)
NCI-H23
  GI50: > 100 µM (inactive)
SF-539
  GI50: > 100 µM (inactive)
Malme-3M
  GI50: > 100 µM (inactive)
M14
  GI50: > 100 µM (inactive)
NCI-H226
  GI50: > 100 µM (inactive)
NCI-H460
  GI50: > 100 µM (inactive)
A549
  GI50: > 100 µM (inactive)
CCRF-CEM
  GI50: 61.8 µM (inactive)
SNB-78
  GI50: > 100 µM (inactive)
A498
  GI50: > 100 µM (inactive)
M19-MEL
  GI50: > 100 µM (inactive)
HL-60
  GI50: > 100 µM (inactive)
UO-31
  GI50: > 100 µM (inactive)
LXFL 529
  GI50: > 100 µM (inactive)
COLO 205
  GI50: > 100 µM (inactive)

## Cc1cc2c(cc1C)[n+]([O-])c(C(=O)/C=C/c1ccccc1[N+](=O)[O-])c(C)[n+]2[O-]
U-251
  GI50: 32.1 µM (inactive)
OVCAR-4
  GI50: > 100 µM (inactive)
NCI-H522
  GI50: 28.6 µM (inactive)
TK-10
  GI50: 49.9 µM (inactive)
RPMI-8226
  GI50: > 73.3 µM (inactive)
XF498
  GI50: 22.3 µM (inactive)
KM12
  GI50: > 100 µM (inactive)
HT-29
  GI50: > 92.3 µM (inactive)
SK-MEL-28
  GI50: 71.4 µM (inactive)
SF-295
  GI50: 36.3 µM (inactive)
NCI/ADR-RES
  GI50: > 100 µM (inactive)
UACC-257
  GI50: 75.9 µM (inactive)
MDA-N
  GI50: > 96.2 µM (inactive)
OVCAR-5
  GI50: > 100 µM (inactive)
DMS-114
  GI50: 17.8 µM (inactive)
SF-268
  GI50: 34.2 µM (inactive)
SK-MEL-2
  GI50: 41 µM (inactive)
K562
  GI50: > 100 µM (inactive)
DLD-1
  GI50: 77.6 µM (inactive)
KM-20L2
  GI50: > 100 µM (inactive)
BT-549
  GI50: > 81.8 µM (inactive)
SK-OV-3
  GI50: > 46.7 µM (inactive)
SW-620
  GI50: > 100 µM (inactive)
RXF 393
  GI50: 37.4 µM (inactive)
HCT-116
  GI50: 70.8 µM (inactive)
UACC-62
  GI50: 40 µM (inactive)
MCF7
  GI50: > 46.5 µM (inactive)
HOP-62
  GI50: 34 µM (inactive)
OVCAR-8
  GI50: 61.5 µM (inactive)
SR
  GI50: 55.6 µM (inactive)
Hs-578T
  GI50: 39.3 µM (inactive)
OVCAR-3
  GI50: 50.7 µM (inactive)
SK-MEL-5
  GI50: > 100 µM (inactive)
EKVX
  GI50: 58.2 µM (inactive)
HOP-18
  GI50: 38.5 µM (inactive)
LOX IMVI
  GI50: 71.1 µM (inactive)
ACHN
  GI50: 46.3 µM (inactive)
SNB-19
  GI50: 30.3 µM (inactive)
IGROV-1
  GI50: > 80 µM (inactive)
DMS-273
  GI50: 34.1 µM (inactive)
MOLT-4
  GI50: > 100 µM (inactive)
SNB-75
  GI50: 11.1 µM (inactive)
DU-145
  GI50: > 100 µM (inactive)
786-0
  GI50: 33 µM (inactive)
HCC 2998
  GI50: 71.6 µM (inactive)
HCT-15
  GI50: 73.8 µM
T47D
  GI50: > 77.3 µM (inactive)
SN12C
  GI50: 69 µM (inactive)
NCI-H23
  GI50: 48.5 µM (inactive)
SF-539
  GI50: 31.2 µM (inactive)
Malme-3M
  GI50: 57 µM (inactive)
M14
  GI50: 74.6 µM (inactive)
NCI-H226
  GI50: 67.5 µM (inactive)
NCI-H460
  GI50: 71.6 µM (inactive)
PC-3
  GI50: > 100 µM (inactive)
A549
  GI50: > 80.9 µM (inactive)
CCRF-CEM
  GI50: > 100 µM (inactive)
SNB-78
  GI50: 27 µM (inactive)
MDA-MB-231
  GI50: > 65.5 µM (inactive)
CAKI-1
  GI50: 47.2 µM (inactive)
A498
  GI50: 61.2 µM (inactive)
M19-MEL
  GI50: > 80 µM (inactive)
HOP-92
  GI50: 34.4 µM (inactive)
MDA-MB-435
  GI50: > 100 µM (inactive)
HL-60
  GI50: 89.5 µM (inactive)
UO-31
  GI50: 99.5 µM (inactive)
LXFL 529
  GI50: > 91.6 µM (inactive)
COLO 205
  GI50: 99.3 µM (inactive)

From ChEMBL document CHEMBL1201862, “PubChem BioAssay data set” (2004)
